Data on one compound can be found in PubChem BioAssay AID1671257.

The IC50 is the concentration that inhibits the measured activity by half.

For this experiment, the target named is Tyrosine-protein kinase ABL2 (Homo sapiens) (UniProt P42684). In words: ABL2 kinase inhibition, dose response, biochemical, Z'-LYTE, FRET readout, direct format (AID 1671257). The settings on record: Z'-LYTE FRET kinase assay, recombinant ABL2.
Tyrosine-protein kinase ABL2 (Homo sapiens), sequence (P42684 whole entry, looked up): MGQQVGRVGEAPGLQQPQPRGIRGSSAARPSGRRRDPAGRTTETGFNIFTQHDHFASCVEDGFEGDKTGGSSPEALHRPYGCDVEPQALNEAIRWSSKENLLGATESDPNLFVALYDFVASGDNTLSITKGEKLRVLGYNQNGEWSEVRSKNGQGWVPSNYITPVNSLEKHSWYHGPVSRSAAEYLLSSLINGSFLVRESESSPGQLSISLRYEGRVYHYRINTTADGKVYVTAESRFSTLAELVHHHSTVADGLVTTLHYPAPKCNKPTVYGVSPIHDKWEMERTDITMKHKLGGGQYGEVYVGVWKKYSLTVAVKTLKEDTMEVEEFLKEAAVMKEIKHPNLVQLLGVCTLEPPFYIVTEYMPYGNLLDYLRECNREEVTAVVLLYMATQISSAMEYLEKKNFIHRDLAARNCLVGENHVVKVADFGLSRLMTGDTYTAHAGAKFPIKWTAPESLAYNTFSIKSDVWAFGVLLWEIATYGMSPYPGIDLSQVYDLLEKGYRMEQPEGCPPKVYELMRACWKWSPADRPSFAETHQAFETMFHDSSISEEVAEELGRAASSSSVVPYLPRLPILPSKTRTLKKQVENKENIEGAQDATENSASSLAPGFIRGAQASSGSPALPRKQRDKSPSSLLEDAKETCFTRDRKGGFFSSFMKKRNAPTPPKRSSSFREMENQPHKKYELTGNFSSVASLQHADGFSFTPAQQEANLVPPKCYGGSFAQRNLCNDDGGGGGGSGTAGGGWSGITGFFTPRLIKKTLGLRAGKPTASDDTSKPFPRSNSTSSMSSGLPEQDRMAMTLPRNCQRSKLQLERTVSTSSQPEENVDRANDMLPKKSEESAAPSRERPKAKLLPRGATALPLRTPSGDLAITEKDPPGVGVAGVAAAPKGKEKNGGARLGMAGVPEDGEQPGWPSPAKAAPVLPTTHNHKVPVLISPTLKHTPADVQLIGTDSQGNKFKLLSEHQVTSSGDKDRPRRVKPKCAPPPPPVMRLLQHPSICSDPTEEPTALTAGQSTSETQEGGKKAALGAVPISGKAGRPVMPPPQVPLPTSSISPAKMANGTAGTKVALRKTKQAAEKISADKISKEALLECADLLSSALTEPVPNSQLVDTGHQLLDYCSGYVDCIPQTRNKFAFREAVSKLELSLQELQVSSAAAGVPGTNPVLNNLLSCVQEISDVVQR

`COc1cc2ncnc(Nc3cccc(Cl)c3)c2cc1OC`: the half-inhibitory concentration (IC50) was 1.05 µM.
